Data reported in patent US6670353B2, “Oxime-group containing oestrone sulphatase inhibitors” (Sterix Limited, priority 1997, dated 2003).

Legend:
[1] = biological target: T1, Steroid sulphatase (Steryl Sulphatase EC 3.1.6.2) (Homo sapiens, UniProt P08842); conditions: 0.1 μM; cited from earlier work
T1 construct: endogenous in cells; host or cells: MCF-7 human breast cancer cells
T1 sequence (P08842 22-583): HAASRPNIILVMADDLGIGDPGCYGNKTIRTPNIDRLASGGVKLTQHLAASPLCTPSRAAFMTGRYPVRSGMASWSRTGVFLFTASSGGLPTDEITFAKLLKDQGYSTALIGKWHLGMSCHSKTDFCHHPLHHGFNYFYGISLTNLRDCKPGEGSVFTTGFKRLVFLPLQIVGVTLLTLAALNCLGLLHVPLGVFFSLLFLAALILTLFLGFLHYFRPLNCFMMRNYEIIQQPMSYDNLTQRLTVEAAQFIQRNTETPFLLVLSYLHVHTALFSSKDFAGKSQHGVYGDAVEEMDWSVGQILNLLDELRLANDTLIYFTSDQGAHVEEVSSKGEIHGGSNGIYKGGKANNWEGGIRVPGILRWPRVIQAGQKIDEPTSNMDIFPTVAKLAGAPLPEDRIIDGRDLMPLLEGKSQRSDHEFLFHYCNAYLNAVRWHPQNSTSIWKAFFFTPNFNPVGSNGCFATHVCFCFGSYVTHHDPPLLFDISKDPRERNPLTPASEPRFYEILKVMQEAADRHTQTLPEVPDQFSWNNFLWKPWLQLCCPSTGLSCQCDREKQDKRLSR

[2] = biological target: T2, rat liver E1-STS (Rattus norvegicus, UniProt P15589); conditions: administered either orally or subcutaneously; cited from earlier work
T2 construct: host or cells: rat liver (in vivo)
T2 sequence (P15589 20-577): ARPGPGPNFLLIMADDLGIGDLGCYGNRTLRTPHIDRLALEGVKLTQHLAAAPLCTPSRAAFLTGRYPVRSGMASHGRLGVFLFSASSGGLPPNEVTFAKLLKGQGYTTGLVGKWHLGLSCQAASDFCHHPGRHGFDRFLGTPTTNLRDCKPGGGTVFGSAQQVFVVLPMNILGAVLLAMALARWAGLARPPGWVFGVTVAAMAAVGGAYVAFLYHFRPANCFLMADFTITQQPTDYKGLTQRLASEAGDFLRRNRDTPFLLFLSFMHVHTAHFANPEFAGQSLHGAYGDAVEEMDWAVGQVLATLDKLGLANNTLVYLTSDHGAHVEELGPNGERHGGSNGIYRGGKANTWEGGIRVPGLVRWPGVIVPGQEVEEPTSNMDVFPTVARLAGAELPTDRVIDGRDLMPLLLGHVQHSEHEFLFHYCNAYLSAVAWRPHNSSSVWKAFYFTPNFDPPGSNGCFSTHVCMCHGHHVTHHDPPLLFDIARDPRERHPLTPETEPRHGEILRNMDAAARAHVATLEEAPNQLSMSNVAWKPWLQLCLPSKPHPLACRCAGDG

[3] = biological target: T3, rat liver DHA-STS (Rattus norvegicus, UniProt P15589); conditions: administered either orally or subcutaneously; cited from earlier work
T3 construct: host or cells: rat liver (in vivo)
T3 sequence (P15589 20-577): T2 sequence (P15589 20-577)

[4] = biological target: T4, E1-STS enzyme (Homo sapiens, UniProt P08842); conditions: cited from earlier work
T4 sequence (P08842 22-583): T1 sequence (P08842 22-583)

[5] = tested on: memory; conditions: rats; cited from earlier work
[6] = cited from earlier work
[7] = tested on: uterine growth; assay: Measurement of estrogenic activity (uterine weight); assay type: in vivo; conditions: rats, oral, such as 0.1 mg/Kg/day for five days; uterine weight/whole body weight×100
Description: Compounds according to the present invention such as Compound 2 (such as at levels of 0.1 mg/Kg/day for five days) are administered orally to rats with another group of animals receiving vehicle only (propylene glycol). At the end of the study uteri are obtained and weighed with the results being expressed as uterine weight/whole body weight×100.

[8] = biological target: T1, Steroid sulphatase (Steryl Sulphatase EC 3.1.6.2); assay: Inhibition of steroid sulphatase activity in intact MCF-7 cells; assay type: cell-based; conditions: MCF7, read-out: % INHIBITION (mean ± S.D., n = 3) MCF-7 cells
Description: (§1) In the examples reference is made to steroid sulphatase inhibition. This is determined according to the teachings of PCT/GB92/01587 wherein the ability of compounds to inhibit oestrone sulphatase activity is assessed using either intact MCF-7 breast cancer cells or placental microsomes. For ease of reference, those teachings are repeated here as Example 1.
Steroid sulphatase (Steroid sulphatase is defined as: Steryl Sulphatase EC 3.1.6.2.) activity was measured in vitro using intact MCF-7 human breast cancer cells. This hormone dependent cell line is widely used to study the control of human breast cancer cell growth. […] Cells were maintained in Minimal Essential Medium (MEM) (Flow Laboratories, Irvine, Scotland) containing 20 mM HEPES, 5% foetal bovine serum, 2 mM glutamine, non-essential amino acids and 0.075% sodium bicarbonate. Up to 30 replicate 25 cm^2 tissue culture flasks were seeded with approximately 1×10^5 cells/flask using the above medium. Cells were grown to 80% confluency and medium was changed every third day.
Intact monolayers of MCF-7 cells in triplicate 25 cm^2 tissue culture flasks were washed with Earle's Balanced Salt Solution (EBSS from ICN Flow, High Wycombe, U.K.) and incubated for 3-4 hours at 37° C. with 5 pmol (7×10^5 dpm) [6,7-^3H]oestrone-3-sulphate (specific activity 60 Ci/mmol from New England Nuclear, Boston, Mass., U.S.A.) in serum-free MEM (2.5 ml) together with oestrone-3-sulphamate (11 concentrations: 0; 1 fM; 0.01 pM; 0.1 pM; 1 pM; 0.01 nM; 0.1 nM; 1 nM; 0.01 mM; 0.1 mM; 1 mM). […] A portion (2 ml) of the organic phase was removed, evaporated and the ^3H and ^14C content of the residue determined by scintillation spectrometry. The mass of oestrone-3-sulphate hydrolysed was calculated from the ^3H counts obtained (corrected for the volumes of the medium and organic phase used, and for recovery of [^14C]oestrone added) and the specific activity of the substrate. […] The number of cell nuclei per flask was determined using a Coulter Counter after treating the cell monolayers with Zaponin. […]

[9] = biological target: T5, Rat Liver Sulphatase (Rattus norvegicus, UniProt P15589); assay: In vivo inhibition (rat liver sulphatase); conditions: 2 mg/kg/d×5 ol, ORAL DOSE
T5 construct: from tissue; host or cells: rat liver after oral dosing
T5 sequence (P15589 20-577): T2 sequence (P15589 20-577)
Description: In Vivo Inhibition (Rat Liver Sulphatase)
99.2±0.42%. @ 2 mg/kg/d×5 ol, ORAL DOSE.

[10] = biological target: T6, Steroid sulphatase (oestrone sulphatase) (Homo sapiens, UniProt P08842); assay: Inhibition of steroid sulphatase activity in placental microsomes; assay type: biochemical; conditions: read-out: % INHIBITION (mean ± S.D., n = 3) PLACENTAL MICROSOMES
T6 construct: Sulphatase-positive human placenta from normal term pregnancies; from tissue; host or cells: human term placenta (2000 g supernatant / microsomes)
T6 sequence (P08842 22-583): T1 sequence (P08842 22-583)
Description: as §1
Sulphatase-positive human placenta from normal term pregnancies (Obstetric Ward, St. Mary's Hospital, London) were thoroughly minced with scissors and washed once with cold phosphate buffer (pH 7.4, 50 mM) then re-suspended in cold phosphate buffer (5 ml/g tissue). Homogenisation was accomplished with an Ultra-Turrax homogeniser, using three 10 second bursts separated by 2 minute cooling periods in ice. Nuclei and cell debris were removed by centrifuging (4° C.) at 2000 g for 30 minutes and portions (2 ml) of the supernatant were stored at −20° C. The protein concentration of the supernatants was determined by the method of Bradford (Anal. Biochem., 72, 248-254 (1976)).
Incubations (1 ml) were carried out using a protein concentration of […], substrate concentration of […] [6,7-^3H]oestrone-3-sulphate (specific activity 60 Ci/mmol from New England Nuclear, Boston, Mass., U.S.A.) and an incubation time of 20 minutes at 37° C. Eight concentrations of the compounds to be tested may be employed: 0 (i.e. control); 0.05 mM; 0.1 mM; 0.2 mM; 0.4 mM; 0.6 mM; 0.8 mM; 1.0 mM. After incubation each sample was cooled and the medium (1 ml) was pipetted into separate tubes containing [^14C]oestrone (7×10^3 dpm) (specific activity 97 Ci/mmol from Amersham International Radiochemical Centre, Amersham, U.K.). The mixture was shaken thoroughly for 30 seconds with toluene (5 ml). […] A portion (2 ml) of the organic phase was removed, evaporated and the ^3H and ^14C content of the residue determined by scintillation spectrometry. The mass of oestrone-3-sulphate hydrolysed was calculated from the ^3H counts obtained (corrected for the volumes of the medium and organic phase used, and for recovery of [^14C]oestrone added) and the specific activity of the substrate.

In the case of `CC12CCC3c4ccc(OS(N)(=O)=O)cc4CCC3C1CCC2=O` (stereo not shown) [EMATE, oestrone-3-sulphamate], the “inhibition of E1-STS activity in intact MCF-7 cells” value [1] is given as “more than 99%”, the “inhibition of rat liver E1-STS activity” value [2] is given as 99% and the “inhibition of rat liver DHA-STS activity” value [3] is given as 99%. The “mode of inhibition of the E1-STS enzyme” value [4] was “time- and concentration-dependent manner” and the memory enhancing effect [5] was “memory enhancing effect”.

In the case of `C[C@]12CC[C@@H]3c4ccc(OS(=O)(=O)O)cc4CC[C@H]3[C@@H]1CCC2=O` [Compound E1S, oestrone sulphate], the half-life in blood [6] is given as 10 to 12 h.

For oestrone-3-N-sulphamate, the “mode of inhibition of the E1-STS enzyme” value [4] is given as “weaker non-time-dependent inactivators”.

With `C[C@]12CCC3c4ccc(OS(N)(=O)=O)cc4CCC3C1CCC2=NO` (stereo partly shown) [Compound 2, Oestrone Oxime-3-O-sulphamate] the “Estrogenic activity: effect on uterine growth” value [7] was “has an effect on uterine growth”, the inhibition at 0.1 µM ([8]; inhibitor concentration 0.1 μM) was 96 ± 1.8% and the inhibition at 1 µM ([8]; inhibitor concentration 1 μM) was 98 ± 0.6%. For the same compound, the inhibition at 10 µM ([8]; inhibitor concentration 10 μM) was 99 ± 0.2%, the “In vivo inhibition (rat liver sulphatase)” value [9] was 99.2±0.42% and the inhibition at 0.0001 µM ([10]; inhibitor concentration 0.1 nM) was 2.9 ± 1.1%. It also gave an inhibition at 0.001 µM ([10]; inhibitor concentration 1 nM) of 8 ± 3.3%, an inhibition at 0.01 µM ([10]; inhibitor concentration 10 nM) of 19.3 ± 2.4% and an inhibition at 0.1 µM ([10]; inhibitor concentration 0.1 μM) of 52.3 ± 0.1%. The inhibition at 1 µM ([10]; inhibitor concentration 1 μM) was 89.8 ± 0.2% and the inhibition at 10 µM ([10]; inhibitor concentration 10 μM) was 98.7 ± 0.1%.

In the case of oestrone-3-S-sulphamate, the “mode of inhibition of the E1-STS enzyme” value [4] is given as “weaker non-time-dependent inactivators”.
